We go through one compound from paper PMC4163472, “Crystal Structure of Deinococcus radiodurans RecQ Helicase Catalytic Core Domain: The Interdomain Flexibility” (BioMed Research International, 2014).

This assay deals with T1, DrRecQ helicase catalytic core (Deinococcus radiodurans, UniProt Q9RUU2).
T1 construct: gene DR_1289; residues 5-517 seen in the complex (296-300 not visible); monomer
T1 sequence (Q9RUU2 1-517): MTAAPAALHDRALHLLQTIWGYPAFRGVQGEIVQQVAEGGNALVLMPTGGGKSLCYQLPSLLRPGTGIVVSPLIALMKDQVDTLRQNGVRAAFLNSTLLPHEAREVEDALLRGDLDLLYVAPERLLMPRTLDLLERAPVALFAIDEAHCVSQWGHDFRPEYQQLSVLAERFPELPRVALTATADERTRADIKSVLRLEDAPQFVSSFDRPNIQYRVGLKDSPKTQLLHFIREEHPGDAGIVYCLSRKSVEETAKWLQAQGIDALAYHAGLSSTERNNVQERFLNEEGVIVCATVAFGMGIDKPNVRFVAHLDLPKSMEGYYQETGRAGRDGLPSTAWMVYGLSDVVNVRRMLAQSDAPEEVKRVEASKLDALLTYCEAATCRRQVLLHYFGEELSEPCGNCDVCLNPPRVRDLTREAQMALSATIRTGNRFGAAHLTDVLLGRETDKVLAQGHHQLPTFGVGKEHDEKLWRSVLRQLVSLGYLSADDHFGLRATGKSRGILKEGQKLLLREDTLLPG
Kind of assay: X-ray crystallography, […] A. The settings on record: crystallised in 0.1 M imidazole pH 7.2, 16% PEG 20K; nucleotide pocket of D1 domain (motifs 0 and I); no magnesium added; authors suggest ADP arose from ATP hydrolysed during crystallization. It is filed as binding.

Turning to `Nc1ncnc2c1ncn2[C@@H]1O[C@H](COP(=O)(O)OP(=O)(O)O)[C@@H](O)[C@H]1O` [ADP], the “X-ray crystallography, 2.9 A” value is listed as “ADP is bound with extensive interactions with the protein”.
